{"source": "ChEMBL document CHEMBL2417540", "about": "“Medicinal chemistry of nicotinamide phosphoribosyltransferase (NAMPT) inhibitors” (J Med Chem, 2013)", "key": {"HCT-116": {"test_system": "HCT-116", "test": "Cytotoxicity against human HCT116 cells", "type": "functional, cell-based"}, "A2780 [1]": {"test_system": "A2780", "test": "Cytotoxicity against human A2780 cells", "type": "functional, cell-based"}, "[2]": {"molecular_target": "T1, Nicotinamide phosphoribosyltransferase (Homo sapiens, UniProt P43490)", "T1 sequence (P43490 whole entry)": "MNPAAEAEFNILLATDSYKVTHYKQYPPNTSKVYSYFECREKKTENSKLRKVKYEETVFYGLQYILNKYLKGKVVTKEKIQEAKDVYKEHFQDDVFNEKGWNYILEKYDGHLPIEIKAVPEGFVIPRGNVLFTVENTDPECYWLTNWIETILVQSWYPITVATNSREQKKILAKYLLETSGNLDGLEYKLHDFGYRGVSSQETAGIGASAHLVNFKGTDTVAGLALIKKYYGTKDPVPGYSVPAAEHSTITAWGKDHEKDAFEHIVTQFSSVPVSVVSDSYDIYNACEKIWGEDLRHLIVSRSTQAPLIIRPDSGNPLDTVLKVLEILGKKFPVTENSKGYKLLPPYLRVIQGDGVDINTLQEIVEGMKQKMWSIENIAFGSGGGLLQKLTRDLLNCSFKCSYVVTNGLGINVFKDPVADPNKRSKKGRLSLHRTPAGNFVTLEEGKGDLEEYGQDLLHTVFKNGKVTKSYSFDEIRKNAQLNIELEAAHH", "test": "Inhibition of NAMPT (unknown origin)"}, "A2780 [3]": {"test_system": "A2780", "test": "Cytotoxicity against human A2780 cells after 72 hrs by SRB assay", "type": "functional, cell-based", "conditions": "A2780, 72 h"}, "[4]": {"molecular_target": "T1, Nicotinamide phosphoribosyltransferase", "test": "Inhibition of recombinant his-tagged NAMPT (unknown origin) expressed in Escherichia coli after 30 mins"}, "[5]": {"test": "Cytotoxicity against human U87 cells by MTT assay", "type": "functional, cell-based, U-87MG ATCC", "conditions": "U-87 MG"}, "[6]": {"molecular_target": "T1, Nicotinamide phosphoribosyltransferase", "test": "Inhibition of NAMPT in human U87 cells", "type": "cell-based, U-87MG ATCC"}, "A2780 [7]": {"test_system": "A2780", "test": "Cytotoxicity against human A2780 cells after 72 hrs by WST-1 assay", "type": "functional, cell-based", "conditions": "A2780, 72 h"}, "[8]": {"test": "Cytotoxicity against human NYH cells after 3 weeks by clonogenic survival assay", "type": "functional", "conditions": "504 h, read-out: LD50 (the source's name)"}, "WIL2": {"test_system": "WIL2", "test": "Cytotoxicity against human W1L2 cells", "type": "functional, cell-based"}, "[9]": {"molecular_target": "T1, Nicotinamide phosphoribosyltransferase", "test": "Binding affinity to NAMPT (unknown origin)"}, "[10]": {"test": "Cytotoxicity against human SH-SY5Y cells […] after 48 hrs by MTT assay", "type": "functional, cell-based"}, "[11]": {"test": "Half life in human", "type": "ADME, organism-based", "conditions": "in vivo"}, "K562": {"test_system": "K562", "test": "Cytotoxicity against human K562 cells after 96 hrs by MTT assay", "type": "functional, cell-based", "conditions": "K562, 96 h"}, "[12]": {"test": "Solubility of the compound in water", "type": "physicochemical"}}, "note": "pEC50, pIC50, pKd: −log10 of the molar value.", "data": [{"compound": "C#CCN(Cc1cc2c(=O)n(C)c(CN3CCN(CCCN)CC3)nc2cc1Cl)c1ccc(C(=O)NCc2cccnc2)cc1", "values": [{"measurement": "pEC50", "setting": "HCT-116", "value": 7.74}]}, {"compound": "CC(C)=CCN(Cc1cc2c(=O)n(C)nnc2cc1Cl)c1ccc(C(=O)NCc2cccnc2)cc1", "values": [{"measurement": "pEC50", "setting": "HCT-116", "value": 8.52}]}, {"compound": "O=C(NCc1cccnc1)Nc1ccc(S(=O)(=O)c2ccccc2OC(F)(F)F)cc1", "values": [{"measurement": "pEC50", "setting": "A2780 [1]", "value": 8.15}, {"measurement": "pIC50", "setting": "[2]", "value": 8.92}]}, {"compound": "N#C/N=C(\\NCc1ccc(S(=O)(=O)c2cccc(Cl)c2)cc1)Nc1ccncc1", "values": [{"measurement": "pEC50", "setting": "A2780 [3]", "value": 8.39}]}, {"compound": "O=C(/C=C/c1cccnc1)Nc1ccc(S(=O)(=O)c2ccccc2)cc1", "values": [{"measurement": "pIC50", "setting": "[4]", "value": 8.52}, {"measurement": "pEC50", "setting": "A2780 [3]", "value": 6.61}]}, {"compound": "O=C1c2cc(S(=O)(=O)O)ccc2-c2ccc(S(=O)(=O)O)cc21", "values": [{"measurement": "pEC50", "setting": "[5]", "value": 3.47}]}, {"compound": "Nc1c(-c2ccc3ccccc3n2)c2ccc([N+](=O)[O-])cc2c(=O)n1Cc1ccccc1", "values": [{"measurement": "pIC50", "setting": "[6]", "value": "> 5.30"}, {"measurement": "pEC50", "setting": "[5]", "value": 3.49}]}, {"compound": "O=c1c(NCCCCCCS(=O)(=O)N(OCCN2CCOCC2)C2CCCCC2)c(Nc2ccncc2)c1=O", "values": [{"measurement": "pIC50", "setting": "A2780 [7]", "value": 10.52}]}, {"compound": "O=C(/C=C/c1cccnc1)NCCCCCCS(=O)(=O)N(CCN1CCOCC1)OCC1CCCCC1", "values": [{"measurement": "pIC50", "setting": "A2780 [1]", "value": 9.80}]}, {"compound": "N#C/N=C(\\NCCCCCCC(=O)N(Cc1ccccc1)OC1CCCCC1)Nc1ccncc1", "values": [{"measurement": "CC50", "setting": "[8]", "value": 0.02, "unit": "nM"}]}, {"compound": "C#CCN(Cc1cc2c(=O)n(C)c(CN3CCN(C)CC3)nc2cc1Br)c1ccc(C(=O)NCc2cccnc2)cc1", "values": [{"measurement": "pIC50", "setting": "[2]", "value": 9.64}, {"measurement": "pEC50", "setting": "WIL2", "value": 9.31}]}, {"compound": "O=C(/C=C/c1ccc[n+]([C@@H]2O[C@H](CO)[C@@H](O)[C@H]2O)c1)NCCCCC1CCN(C(=O)c2ccccc2)CC1", "values": [{"measurement": "pKd", "setting": "[9]", "value": 4.35}]}, {"compound": "Cc1ncsc1C(=O)N1CCC(CCCCNC(=O)c2cc3cnccc3[nH]2)CC1", "values": [{"measurement": "pEC50", "setting": "A2780 [3]", "value": 9.00}]}, {"compound": "O=C(NCCCCC1CCN(C(=O)c2ccccc2)CC1)c1cc2ccncc2s1", "values": [{"measurement": "pEC50", "setting": "A2780 [3]", "value": 8.92}]}, {"compound": "O=C(c1ccccc1)N1CCC(CCCCn2cc(/C=C/c3cccnc3)nn2)CC1", "values": [{"measurement": "pIC50", "setting": "[10]", "value": 5.52}]}, {"compound": "O=C(NCCCCCCS(=O)(=O)N(OCCN1CCOCC1)C1CCCCC1)NCc1cccnc1", "values": [{"measurement": "pIC50", "setting": "A2780 [1]", "value": 9.05}]}, {"compound": "N#CN=C(NCCCCCCOc1ccc(Cl)cc1)Nc1ccncc1", "note": "[CHS-828]", "values": [{"measurement": "half-life", "setting": "[11]", "value": 3, "unit": "h"}, {"measurement": "CC50", "setting": "[8]", "value": 1.7, "unit": "nM"}]}, {"compound": "O=C(/C=C/c1cccnc1)NCCCCC1CCN(C(=O)c2ccccc2)CC1", "note": "[DAPORINAD]", "values": [{"measurement": "pIC50", "setting": "K562", "value": 8.14}, {"measurement": "CC50", "setting": "[8]", "value": 1.5, "unit": "nM"}]}, {"compound": "COCCOCCOCCOCCOC(=O)OC[n+]1ccc(N/C(=N/C#N)NCCCCCCOc2ccc(Cl)cc2)cc1.[Cl-]", "note": "[TEGLARINAD CHLORIDE]", "values": [{"measurement": "solubility", "setting": "[12]", "value": "≤ 97", "unit": "mg/mL"}]}]}
